Experimental data: patent publication US10590086B2, “Pharmaceutical compound” (IOmet Pharma Ltd., priority 2014, dated 2020)

Experiments:
TDO [1] = biological target: T1, TDO (Homo sapiens, UniProt P48775); experiment: hTDO biochemical coupled assay; settings: 330 μM L-tryptophan, read-out: hTDO biochemical assay pIC50 (converted)
IDO [2] = biological target: T2, IDO (Homo sapiens, UniProt P14902); experiment: hIDO biochemical coupled assay; settings: 45 μM L-tryptophan, read-out: hIDO biochemical assay pIC50 (converted)
T2 sequence (P14902 whole entry): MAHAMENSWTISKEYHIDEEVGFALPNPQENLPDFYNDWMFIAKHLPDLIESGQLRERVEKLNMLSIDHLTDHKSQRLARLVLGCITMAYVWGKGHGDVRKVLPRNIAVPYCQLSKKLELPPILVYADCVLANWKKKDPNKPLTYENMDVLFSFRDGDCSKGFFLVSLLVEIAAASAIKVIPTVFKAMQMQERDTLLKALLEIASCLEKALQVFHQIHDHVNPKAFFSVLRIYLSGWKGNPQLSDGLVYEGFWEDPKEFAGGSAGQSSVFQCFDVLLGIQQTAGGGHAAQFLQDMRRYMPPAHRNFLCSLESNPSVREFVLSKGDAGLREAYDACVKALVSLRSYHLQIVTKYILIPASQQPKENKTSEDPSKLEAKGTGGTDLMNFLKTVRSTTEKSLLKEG

TDO [3] = biological target: T1, TDO; experiment: A172 kynurenine cell-based assay; design: This assay utilised cancer cells which expressed either TDO or IDO; endogenous in cells; host or cells: A172 (human glioblastoma); settings: A172 human glioblastoma cells, 48 hours, read-out: A172 Kynurenine cell based assay pIC50 (converted)
How it was run: (§1)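 First, A172 or SKOV3 cells were seeded in phenol red-free RPMI, 10% FCS, 2 mM L-glutamine, 500 μM L-tryptophan; SKOV3 received 500 ng/ml IFN-γ for IDO induction. Next came compound exposure, 48 hours, 37° C. Finally, cells were spun out, supernatant treated with Erhlich's reagent, absorbance read at 490 nm.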

IDO [4] = biological target: T2, IDO; experiment: SKOV3 kynurenine cell-based assay (IDO induced by IFN-γ); design: IDO expression was induced in the SKOV3 cells by the addition of 500 ng/ml IFN-γ; endogenous in cells; host or cells: SKOV3 (human ovarian adenocarcinoma), induced with IFN-γ; settings: 48 hours, read-out: SKOV3 Kynurenine cell based assay pIC50 (converted)
How it was run: as §1

[5] = SKOV3 human ovarian adenocarcinoma cells, 500 ng/ml IFN-γ, 500 μM L-tryptophan

T1 sequence (P48775 whole entry): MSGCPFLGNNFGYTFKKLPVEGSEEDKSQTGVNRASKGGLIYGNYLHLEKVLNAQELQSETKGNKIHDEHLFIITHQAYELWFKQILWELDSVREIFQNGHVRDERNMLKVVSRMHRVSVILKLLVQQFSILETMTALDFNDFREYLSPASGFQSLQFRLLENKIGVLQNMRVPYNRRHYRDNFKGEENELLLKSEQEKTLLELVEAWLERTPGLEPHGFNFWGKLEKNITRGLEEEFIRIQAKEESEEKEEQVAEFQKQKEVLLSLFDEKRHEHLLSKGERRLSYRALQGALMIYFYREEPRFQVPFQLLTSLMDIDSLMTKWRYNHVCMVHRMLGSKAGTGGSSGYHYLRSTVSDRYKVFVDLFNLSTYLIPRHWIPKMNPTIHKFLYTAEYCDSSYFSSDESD

Row | Structure (SMILES) | IC50 (TDO [1]; 17 minutes, room temperature) | IC50 (IDO [2]; 17 minutes, room temperature) | IC50 (TDO [3]; 500 μM L-tryptophan) | IC50 (IDO [4]; [5]) | IC50 (TDO [1]) | IC50 (IDO [2]) | IC50 (TDO [3]) | IC50 (IDO [4]; SKOV3 cells, IDO induced by 500 ng/ml IFN-γ)
1 | OC(c1ccccc1)c1cc(Cl)cc2[nH]ncc12 (stereo not drawn) [Compound 271] | < 3.16 µM | > 100 µM | < 3.16 µM | 32.4 to 100 µM | – | – | – | –
2 | CC(C)CC(O)c1cc(Cl)cc2[nH]ncc12 (stereo not drawn) [Compound 272] | < 3.16 µM | 32.4 to 100 µM | < 3.16 µM | 3.24 to 31.6 µM | – | – | – | –
3 | OC1(c2cc(Cl)cc3[nH]ncc23)CCCCC1 [Compound 273, 1-(6-chloro-1H-indazol-4-yl)cyclohexanol] | < 3.16 µM | 3.24 to 31.6 µM | < 3.16 µM | 3.24 to 31.6 µM | 0.0851 µM | 11.7 µM | 0.0135 µM | 9.55 µM
4 | CN(C)S(=O)(=O)c1ccc(-c2cc(Cl)cc3[nH]ncc23)cc1 [Compound 277] | < 3.16 µM | > 100 µM | < 3.16 µM | 3.24 to 31.6 µM | – | – | – | –
5 | CC(=O)N(C)C1CCN(c2cc(Cl)cc3[nH]ncc23)C1 (stereo not drawn) [Compound 278] | < 3.16 µM | 32.4 to 100 µM | < 3.16 µM | 3.24 to 31.6 µM | – | – | – | –
6 | CNc1cc(-c2cc(Cl)cc3[nH]ncc23)ccn1 [Compound 279] | < 3.16 µM | > 100 µM | < 3.16 µM | < 3.16 µM | – | – | – | –
7 | O=C1CC2(CCN(c3cc(Cl)cc4[nH]ncc34)CC2)CN1 [Compound 280] | < 3.16 µM | 3.24 to 31.6 µM | < 3.16 µM | 3.24 to 31.6 µM | – | – | – | –
8 | OC(Cc1ccccc1)c1cc(Cl)cc2[nH]ncc12 (stereo not drawn) [Compound 281] | < 3.16 µM | 3.24 to 31.6 µM | < 3.16 µM | 3.24 to 31.6 µM | – | – | – | –
9 | CC(=O)N(C)CC1CCN(c2cc(Cl)cc3[nH]ncc23)CC1 [Compound 282] | < 3.16 µM | 32.4 to 100 µM | < 3.16 µM | 3.24 to 31.6 µM | – | – | – | –
10 | CC(=O)NCC1CCCN(c2cc(Cl)cc3[nH]ncc23)C1 (stereo not drawn) [Compound 283] | < 3.16 µM | > 100 µM | 3.24 to 31.6 µM | 3.24 to 31.6 µM | – | – | – | –
11 | CS(=O)(=O)NCC1CCCN(c2cc(Cl)cc3[nH]ncc23)C1 (stereo not drawn) [Compound 284] | < 3.16 µM | > 100 µM | 3.24 to 31.6 µM | 32.4 to 100 µM | – | – | – | –
12 | CN(CC1CCCN(c2cc(Cl)cc3[nH]ncc23)C1)S(C)(=O)=O (stereo not drawn) [Compound 285] | 3.24 to 31.6 µM | > 100 µM | 3.24 to 31.6 µM | 32.4 to 100 µM | – | – | – | –
13 | CC(=O)N(C)CC1CCCN(c2cc(Cl)cc3[nH]ncc23)C1 (stereo not drawn) [Compound 286] | < 3.16 µM | > 100 µM | 3.24 to 31.6 µM | 3.24 to 31.6 µM | – | – | – | –
14 | COC(C)c1cc(Cl)cc2[nH]ncc12 (stereo not drawn) [Compound 287] | 3.24 to 31.6 µM | > 100 µM | 3.24 to 31.6 µM | > 100 µM | – | – | – | –
15 | COCCc1cc(Cl)cc2[nH]ncc12 [Compound 288] | < 3.16 µM | > 100 µM | < 3.16 µM | > 100 µM | – | – | – | –
16 | OC(CC1CCOCC1)c1cc(Cl)cc2[nH]ncc12 (stereo not drawn) [Compound 289] | < 3.16 µM | 32.4 to 100 µM | < 3.16 µM | 32.4 to 100 µM | – | – | – | –
17 | O=C1NC(=O)C2(CCN(c3cc(Br)cc4[nH]ncc34)CC2)N1 [Compound 290] | < 3.16 µM | < 3.16 µM | < 3.16 µM | < 3.16 µM | – | – | – | –
18 | CN1CC2(CCN(c3cc(Cl)cc4[nH]ncc34)CC2)CC1=O [Compound 291] | < 3.16 µM | > 100 µM | < 3.16 µM | 3.24 to 31.6 µM | – | – | – | –
19 | CC(=O)N1CCC(CNC(=O)c2cc(Cl)cc3[nH]ncc23)CC1 [Compound 295] | > 100 µM | > 100 µM | > 100 µM | 32.4 to 100 µM | – | – | – | –
20 | CS(=O)(=O)c1ccc(-c2cc(Cl)cc3[nH]ncc23)c(F)c1 [Compound 297] | < 3.16 µM | 3.24 to 31.6 µM | < 3.16 µM | < 3.16 µM | – | – | – | –
21 | CNC(=O)C1CCN(c2cc(Cl)cc3[nH]ncc23)C1 (stereo not drawn) [Compound 298] | < 3.16 µM | 3.24 to 31.6 µM | 3.24 to 31.6 µM | 3.24 to 31.6 µM | – | – | – | –
22 | OC(c1cc(Cl)cc2[nH]ncc12)C1CCOCC1 (stereo not drawn) [Compound 299] | < 3.16 µM | > 100 µM | < 3.16 µM | > 100 µM | – | – | – | –
23 | CNS(=O)(=O)c1ccc(-c2cc(Cl)cc3[nH]ncc23)cc1 [Compound 300] | < 3.16 µM | 32.4 to 100 µM | < 3.16 µM | 3.24 to 31.6 µM | – | – | – | –
24 | O=C(O)C1CCN(c2cc(Cl)cc3[nH]ncc23)CC1 [Compound 301] | < 3.16 µM | 32.4 to 100 µM | 3.24 to 31.6 µM | > 100 µM | – | – | – | –

Row | Structure (SMILES) | IC50 (TDO [1]; 17 minutes, room temperature) | IC50 (IDO [2]; 17 minutes, room temperature) | IC50 (TDO [3]; 500 μM L-tryptophan) | IC50 (IDO [4]; [5]) | IC50 (TDO [1]) | IC50 (IDO [2]) | IC50 (TDO [3]) | IC50 (IDO [4]; SKOV3 cells, IDO induced by 500 ng/ml IFN-γ)
25 | CS(=O)(=O)N1CCN(c2cc(Cl)cc3c(N)noc23)CC1 [Compound 302] | > 100 µM | > 100 µM | 3.24 to 31.6 µM | 3.24 to 31.6 µM | – | – | – | –
26 | CC(=O)N1CCN(c2cc(Cl)cc3c(N)noc23)CC1 [Compound 303] | > 100 µM | > 100 µM | 3.24 to 31.6 µM | > 100 µM | – | – | – | –
27 | Clc1cc(N2CCc3ccccc3C2)c2cn[nH]c2c1 [Compound 304] | < 3.16 µM | > 100 µM | < 3.16 µM | 32.4 to 100 µM | – | – | – | –
28 | CC(=O)N1CCN(c2cc(Cl)cc3c(N)noc23)CC1(C)C [Compound 305] | 32.4 to 100 µM | > 100 µM | 3.24 to 31.6 µM | 32.4 to 100 µM | – | – | – | –
29 | CS(=O)(=O)N1CCN(c2cc(Cl)cc3c(N)n[nH]c23)CC1 [Compound 306] | > 100 µM | > 100 µM | 3.24 to 31.6 µM | 3.24 to 31.6 µM | – | – | – | –
30 | CC(=O)N1CCN(c2cc(Cl)cc3c(N)n[nH]c23)CC1(C)C [Compound 307] | < 3.16 µM | < 3.16 µM | > 100 µM | 3.24 to 31.6 µM | – | – | – | –
31 | Clc1cc(N2CCCCC2)c2cn[nH]c2c1 [Compound 308] | 3.24 to 31.6 µM | 32.4 to 100 µM | < 3.16 µM | > 100 µM | – | – | – | –
32 | Clc1cc(N2CCN(c3ncccn3)CC2)c2cn[nH]c2c1 [Compound 309] | 3.24 to 31.6 µM | > 100 µM | < 3.16 µM | > 100 µM | – | – | – | –
33 | CN(c1cc(N2CCN(S(C)(=O)=O)C(C)(C)C2)c2cn[nH]c2c1)S(C)(=O)=O [Compound 310] | > 100 µM | > 100 µM | 32.4 to 100 µM | > 100 µM | – | – | – | –
34 | CC(=O)N(C)c1cc(N2CCN(S(C)(=O)=O)C(C)(C)C2)c2cn[nH]c2c1 [Compound 311] | 32.4 to 100 µM | > 100 µM | 3.24 to 31.6 µM | 3.24 to 31.6 µM | – | – | – | –
35 | CC(=O)Nc1cc(N2CCN(S(C)(=O)=O)C(C)(C)C2)c2cn[nH]c2c1 [Compound 312] | > 100 µM | > 100 µM | 3.24 to 31.6 µM | > 100 µM | – | – | – | –
36 | Clc1cc(N2CCC(c3nccs3)CC2)c2cn[nH]c2c1 [Compound 313] | < 3.16 µM | 3.24 to 31.6 µM | < 3.16 µM | 3.24 to 31.6 µM | – | – | – | –
37 | CS(=O)(=O)N1C2COCC1CN(c1cc(Cl)cc3[nH]ncc13)C2 [Compound 314] | < 3.16 µM | 32.4 to 100 µM | < 3.16 µM | 32.4 to 100 µM | – | – | – | –
38 | CCN1C(=O)NC2(CCN(c3cc(Cl)cc4[nH]ncc34)CC2)C1=O [Compound 315] | < 3.16 µM | < 3.16 µM | < 3.16 µM | < 3.16 µM | – | – | – | –
39 | CC(C)N1C(=O)NC2(CCN(c3cc(Cl)cc4[nH]ncc34)CC2)C1=O [Compound 316] | < 3.16 µM | 3.24 to 31.6 µM | < 3.16 µM | 3.24 to 31.6 µM | – | – | – | –
40 | CC1(C)CN(c2cc(Cl)cc3c(N)noc23)CCN1S(C)(=O)=O [Compound 317] | 3.24 to 31.6 µM | > 100 µM | > 100 µM | 32.4 to 100 µM | – | – | – | –
41 | O=C1CN(c2cc(Cl)cc3[nH]ncc23)CCN1 [Compound 318] | 3.24 to 31.6 µM | > 100 µM | 3.24 to 31.6 µM | > 100 µM | – | – | – | –
42 | OC1(c2cc(Cl)cc3[nH]ncc23)CCOCC1 [Compound 319] | < 3.16 µM | 3.24 to 31.6 µM | < 3.16 µM | 32.4 to 100 µM | – | – | – | –
43 | OC1(c2cc(Cl)cc3[nH]ncc23)CCCC1 [Compound 320] | < 3.16 µM | 3.24 to 31.6 µM | < 3.16 µM | 3.24 to 31.6 µM | – | – | – | –
44 | CC1(C)CN(c2cc(Cl)cc3c(N)n[nH]c23)CCN1S(C)(=O)=O [Compound 321] | > 100 µM | > 100 µM | 3.24 to 31.6 µM | 3.24 to 31.6 µM | – | – | – | –
45 | CC(=O)N1CCN(c2cc(Cl)cc3c(N)n[nH]c23)CC1 [Compound 322] | > 100 µM | > 100 µM | 3.24 to 31.6 µM | 3.24 to 31.6 µM | – | – | – | –
46 | CC(=O)N1CCN(c2cc(C#N)cc3[nH]ncc23)CC1 [Compound 323] | > 100 µM | > 100 µM | 32.4 to 100 µM | 32.4 to 100 µM | – | – | – | –
47 | Clc1cc(N2CCN(c3ccccn3)CC2)c2cn[nH]c2c1 [Compound 324] | < 3.16 µM | > 100 µM | < 3.16 µM | 3.24 to 31.6 µM | – | – | – | –
